Test results as given in ChEMBL document CHEMBL1145695, “Biologically active acylglycerides from the berries of saw-palmetto (Serenoa repens)” (J Nat Prod, 1997).
In brackets after ≈: the same amount, converted by molar mass.

How the values were obtained:
MIA PaCa-2 = assay: Cytotoxicity against human MIAPaCa2 cells after 7 days by MTT assay; type: functional; conditions: MIA PaCa-2, 168 h, read-out: ED50 (the source's name)
A498 = assay: Cytotoxicity against human A498 cells after 7 days by MTT assay; type: functional; conditions: A498, 168 h, read-out: ED50 (the source's name)
[1] = Toxicity against brine shrimp; type: organism-based; conditions: artemia, in vivo
PC-3 = assay: Cytotoxicity against human PC3 cells after 7 days by MTT assay; type: functional; conditions: PC-3, 168 h, read-out: ED50 (the source's name)

| Compound | EC50 (MIA PaCa-2) [µg/mL] | EC50 (A498) [µg/mL] | LC50 [1] [µg/mL] | EC50 (PC-3) [µg/mL] |
| --- | --- | --- | --- | --- |
| CCCCCCCCCCCCCC(=O)OCC(O)CO (stereo unspecified) | 1.87 (≈ 6.18 µM) | 3.58 (≈ 11.8 µM) | 53.3 (≈ 176 µM) | 8.84 (≈ 29.2 µM) |
| COc1cccc2c1C(=O)c1c(O)c3c(c(O)c1C2=O)C[C@@](O)(C(=O)CO)C[C@@H]3O[C@H]1C[C@H](N)[C@H](O)[C@H](C)O1 [DOXORUBICIN] | 0.0392 (≈ 0.0721 µM) | 0.0122 (≈ 0.0224 µM) |  | 0.0119 (≈ 0.0219 µM) |
| CCCCCCCCCCCC(=O)OCC(O)CO (stereo unspecified) [GLYCEROL MONOLAURATE] | 2.33 (≈ 8.49 µM) | 3.77 (≈ 13.7 µM) | 79.2 (≈ 289 µM) | 23.3 (≈ 84.8 µM) |
